{
  "source": "ChEMBL document CHEMBL1201862",
  "about": "“PubChem BioAssay data set” (2004)",
  "key": {"[1]": {"molecular_target": "Sphingosine 1-phosphate receptor 1 (Homo sapiens, UniProt P21453)", "sequence (P21453 whole entry)": "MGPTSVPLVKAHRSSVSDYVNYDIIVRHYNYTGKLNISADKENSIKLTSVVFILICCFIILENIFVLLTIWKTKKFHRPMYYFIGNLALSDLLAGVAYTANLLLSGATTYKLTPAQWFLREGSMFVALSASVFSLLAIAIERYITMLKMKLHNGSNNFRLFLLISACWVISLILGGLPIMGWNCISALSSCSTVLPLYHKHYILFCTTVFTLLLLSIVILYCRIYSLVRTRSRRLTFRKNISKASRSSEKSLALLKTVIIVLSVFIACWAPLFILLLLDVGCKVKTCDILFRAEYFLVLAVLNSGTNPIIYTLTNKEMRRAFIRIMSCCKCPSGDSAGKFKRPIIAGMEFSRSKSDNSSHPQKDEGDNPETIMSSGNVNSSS", "experiment": "Fluorescence-based counterscreen assay for S1P4 agonists: Cell-based dose response high throughput screening assay to identify agonists of the Sphingosine 1-Phosphate Receptor 1 (S1P1). [Related pubchem assays (depositor defined):AID1509, AID1523, AID1801, AID463107, AID463118, AID463119, AID463122, AID463123, AID463129, AID463225, AID504400, AID504460]", "type": "functional"}, "[2]": {"molecular_target": "T1, Sphingosine 1-phosphate receptor 4 (Homo sapiens, UniProt O95977)", "T1 sequence (O95977 whole entry)": "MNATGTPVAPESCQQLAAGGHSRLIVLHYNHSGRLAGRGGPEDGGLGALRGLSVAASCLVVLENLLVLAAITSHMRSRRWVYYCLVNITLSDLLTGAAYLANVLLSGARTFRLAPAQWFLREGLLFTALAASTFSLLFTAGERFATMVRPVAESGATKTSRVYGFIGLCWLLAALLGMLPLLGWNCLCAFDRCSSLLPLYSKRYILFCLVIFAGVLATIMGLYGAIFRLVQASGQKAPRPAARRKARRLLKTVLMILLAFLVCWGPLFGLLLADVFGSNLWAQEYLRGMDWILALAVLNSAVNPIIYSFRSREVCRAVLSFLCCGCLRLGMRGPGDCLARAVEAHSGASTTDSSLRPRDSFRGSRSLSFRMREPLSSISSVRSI", "experiment": "Fluorescence dose response cell-based high throughput screening assay for agonists of the Sphingosine 1-Phosphate Receptor 4 (S1P4). [Related pubchem assays: 1509 (Primary screen.), 1523 (Confirmation screen in triplicates.)]", "type": "functional"}, "[3]": {"molecular_target": "T2, Kappa-type opioid receptor (Homo sapiens, UniProt P41145)", "T2 sequence (P41145 whole entry)": "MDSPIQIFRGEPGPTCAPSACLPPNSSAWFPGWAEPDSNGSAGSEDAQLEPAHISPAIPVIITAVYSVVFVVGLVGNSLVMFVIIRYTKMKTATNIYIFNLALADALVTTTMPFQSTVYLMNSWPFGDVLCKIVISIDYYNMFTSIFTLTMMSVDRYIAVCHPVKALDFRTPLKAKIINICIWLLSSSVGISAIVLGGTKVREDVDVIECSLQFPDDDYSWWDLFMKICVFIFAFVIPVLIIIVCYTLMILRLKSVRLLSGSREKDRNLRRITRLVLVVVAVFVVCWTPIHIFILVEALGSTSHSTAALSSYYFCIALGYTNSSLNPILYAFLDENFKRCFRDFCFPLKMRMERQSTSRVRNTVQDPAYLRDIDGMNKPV", "experiment": "kappa opioid receptor blockers, image-based, SAR follow-up (AID 2348)", "type": "functional"}, "Mu-type opioid receptor [4]": {"molecular_target": "T3, Mu-type opioid receptor (Homo sapiens, UniProt P35372)", "T3 sequence (P35372 whole entry)": "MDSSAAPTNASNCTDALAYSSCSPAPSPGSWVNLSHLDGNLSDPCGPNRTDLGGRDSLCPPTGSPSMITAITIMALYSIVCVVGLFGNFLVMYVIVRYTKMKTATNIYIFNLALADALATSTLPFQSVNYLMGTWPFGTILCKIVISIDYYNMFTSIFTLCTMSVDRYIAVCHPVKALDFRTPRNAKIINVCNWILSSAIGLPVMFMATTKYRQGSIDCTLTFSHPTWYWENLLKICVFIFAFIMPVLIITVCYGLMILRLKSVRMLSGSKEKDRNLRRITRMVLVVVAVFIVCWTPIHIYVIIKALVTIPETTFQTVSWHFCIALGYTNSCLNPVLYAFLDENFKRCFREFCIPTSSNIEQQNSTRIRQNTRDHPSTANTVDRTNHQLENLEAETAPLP", "experiment": "mu opioid receptor activators, image-based, SAR follow-up (AID 2352)", "type": "functional"}, "[5]": {"molecular_target": "T4, Delta-type opioid receptor (Homo sapiens, UniProt P41143)", "T4 sequence (P41143 whole entry)": "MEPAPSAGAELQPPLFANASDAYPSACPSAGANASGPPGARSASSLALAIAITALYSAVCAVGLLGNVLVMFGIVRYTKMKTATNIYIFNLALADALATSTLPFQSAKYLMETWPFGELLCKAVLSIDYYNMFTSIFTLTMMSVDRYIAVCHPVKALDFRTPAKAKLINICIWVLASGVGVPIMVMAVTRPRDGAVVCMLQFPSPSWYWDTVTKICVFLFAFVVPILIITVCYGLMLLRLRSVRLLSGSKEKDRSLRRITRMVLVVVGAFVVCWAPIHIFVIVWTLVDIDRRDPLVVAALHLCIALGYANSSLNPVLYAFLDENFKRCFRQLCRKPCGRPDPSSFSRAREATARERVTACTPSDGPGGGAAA", "experiment": "delta opioid receptor blockers – image-based, SAR follow-up (AID 2357)", "type": "functional"}, "[6]": {"molecular_target": "T4, Delta-type opioid receptor", "experiment": "DOR agonists, SAR follow-up, image-based (AID 2370)", "type": "functional"}, "[7]": {"molecular_target": "T2, Kappa-type opioid receptor", "experiment": "kappa opioid receptor activation potency – imaging, image-based, SAR follow-up (AID 2359)", "type": "functional"}, "[8]": {"molecular_target": "Dual specificity protein phosphatase 3 (Homo sapiens, UniProt P51452)", "sequence (P51452 whole entry)": "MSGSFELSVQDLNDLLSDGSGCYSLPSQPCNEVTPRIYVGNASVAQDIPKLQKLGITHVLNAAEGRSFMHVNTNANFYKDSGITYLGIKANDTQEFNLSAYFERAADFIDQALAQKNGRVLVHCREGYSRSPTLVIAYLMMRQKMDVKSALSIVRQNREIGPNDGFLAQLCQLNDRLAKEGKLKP", "experiment": "SAR VHR1 Fluorescent Assay for In Vitro dose response studies Set 2. [Related pubchem assays (depositor defined):AID1654, AID1661, AID1878]", "type": "functional"}, "[9]": {"molecular_target": "T2, Kappa-type opioid receptor", "experiment": "kappa opioid receptor blockers, cell-based, luminescence, beta-arrestin, SAR follow-up (AID 2285)", "type": "functional"}, "Mu-type opioid receptor [10]": {"molecular_target": "T3, Mu-type opioid receptor", "experiment": "mu opioid receptor blockers – image-based, SAR follow-up (AID 2420);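 also: compounds added before stimulation of receptor with agonist DAMGO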", "type": "functional"}, "[11]": {"molecular_target": "T5, Tyrosine-protein phosphatase non-receptor type 7 (Homo sapiens, UniProt P35236)", "T5 sequence (P35236 whole entry)": "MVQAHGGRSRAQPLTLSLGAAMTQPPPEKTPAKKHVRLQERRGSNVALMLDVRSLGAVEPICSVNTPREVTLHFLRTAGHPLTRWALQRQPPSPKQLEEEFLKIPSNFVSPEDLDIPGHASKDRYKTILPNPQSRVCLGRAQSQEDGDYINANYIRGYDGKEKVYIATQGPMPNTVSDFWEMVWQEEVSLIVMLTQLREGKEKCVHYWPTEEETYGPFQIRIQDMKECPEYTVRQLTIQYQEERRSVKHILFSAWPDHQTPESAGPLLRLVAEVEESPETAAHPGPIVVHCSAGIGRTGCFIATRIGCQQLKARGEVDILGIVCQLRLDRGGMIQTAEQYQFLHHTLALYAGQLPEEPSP", "experiment": "SAR analysis of chemical inhibitors of HePTP using a Fluorescent assay - Set 2. [Related pubchem assays (depositor defined):AID1059, AID1077, AID1661, AID2085, AID521]", "type": "functional"}, "[12]": {"molecular_target": "T2, Kappa-type opioid receptor", "experiment": "SAR analysis of Agonists of the Kappa Opioid Receptor (KOR) using an Image-Based Assay - Set 2. [Related pubchem assays (depositor defined):AID1777, AID1786, AID1966, AID2133, AID2136, AID2284, AID2285, AID2359]", "type": "functional"}, "[13]": {"molecular_target": "T4, Delta-type opioid receptor", "experiment": "SAR Analysis of Agonists of the DOR Receptor using an Image-Based Assay - Set 3. [Related pubchem assays (depositor defined):AID1777, AID1786]", "type": "functional"}, "Mu-type opioid receptor [14]": {"molecular_target": "T3, Mu-type opioid receptor", "experiment": "SAR Analysis of Agonists of the MOR Receptor using an Image-Based Assay - Set 3. [Related pubchem assays (depositor defined):AID1777, AID1785, AID1786, AID1966, AID2133, AID2136, AID2284, AID2285, AID2352]", "type": "functional"}, "[15]": {"molecular_target": "T4, Delta-type opioid receptor", "experiment": "SAR Analysis of Antagonists of the DOR Receptor using an Image-Based Assay - Set 2. [Related pubchem assays (depositor defined):AID1777, AID1785, AID1786, AID1966, AID2133, AID2136, AID2284, AID2285, AID2357]", "type": "functional"}, "[16]": {"molecular_target": "T2, Kappa-type opioid receptor", "experiment": "SAR analysis of small molecule agonists of the kappa opioid receptor via a luminescent beta-arrestin assay - Set 3. [Related pubchem assays (depositor defined):AID1777, AID1785, AID1786, AID1966, AID2133, AID2136, AID2284, AID2500]", "type": "functional"}, "Mu-type opioid receptor [17]": {"molecular_target": "T3, Mu-type opioid receptor", "experiment": "SAR Analysis of Antagonists of the MOR Receptor using an Image-Based Assay - Set 2. [Related pubchem assays (depositor defined):AID1777, AID1785, AID1786, AID1966, AID2133, AID2136, AID2284, AID2285, AID2420]", "type": "functional"}, "[18]": {"molecular_target": "T2, Kappa-type opioid receptor", "experiment": "kappa opioid receptor activation by imaging – image-based, set 3, SAR follow-up (AID 488833)", "type": "functional"}, "[19]": {"molecular_target": "T2, Kappa-type opioid receptor", "experiment": "SAR analysis of Antagonists of the Kappa Opioid Receptor (KOR) using an Image-Based Assay - Set 2. [Related pubchem assays (depositor defined):AID1777, AID1785, AID1786, AID1966, AID2133, AID2136, AID2284, AID2285, AID2348]", "type": "functional"}, "Mu-type opioid receptor [20]": {"molecular_target": "T3, Mu-type opioid receptor", "experiment": "SAR Analysis of Agonists of the MOR Receptor using an Image-Based Assay - Set 2. [Related pubchem assays (depositor defined):AID1777, AID1785, AID1786, AID1966, AID2133, AID2136, AID2284, AID2285, AID2352]", "type": "functional"}, "[21]": {"molecular_target": "T2, Kappa-type opioid receptor", "experiment": "SAR analysis of small molecule agonists of the kappa opioid receptor via a luminescent beta-arrestin assay - Set 2. [Related pubchem assays (depositor defined):AID1777, AID1785, AID1786, AID1966, AID2133, AID2136, AID2284, AID449737]", "type": "functional"}, "[22]": {"molecular_target": "T4, Delta-type opioid receptor", "experiment": "SAR Analysis of Agonists of the DOR Receptor using an Image-Based Assay - Set 2. [Related pubchem assays (depositor defined):AID1777, AID1785, AID1786, AID1966, AID2133, AID2136, AID2284, AID2285, AID2370]", "type": "functional"}, "[23]": {"experiment": "Counterscreen for AddAB inhibitors: absorbance-based bacterial cell-based high throughput dose response assay for inhibitors of bacterial viability. [Related pubchem assays (depositor defined):AID435030, AID449728, AID449731, AID488942, AID488955, AID488956]", "type": "functional"}, "Exodeoxyribonuclease V": {"molecular_target": "Exodeoxyribonuclease V (Escherichia coli (strain K12), UniProt P04993+P07648+P08394)", "sequence (P04993 whole entry)": "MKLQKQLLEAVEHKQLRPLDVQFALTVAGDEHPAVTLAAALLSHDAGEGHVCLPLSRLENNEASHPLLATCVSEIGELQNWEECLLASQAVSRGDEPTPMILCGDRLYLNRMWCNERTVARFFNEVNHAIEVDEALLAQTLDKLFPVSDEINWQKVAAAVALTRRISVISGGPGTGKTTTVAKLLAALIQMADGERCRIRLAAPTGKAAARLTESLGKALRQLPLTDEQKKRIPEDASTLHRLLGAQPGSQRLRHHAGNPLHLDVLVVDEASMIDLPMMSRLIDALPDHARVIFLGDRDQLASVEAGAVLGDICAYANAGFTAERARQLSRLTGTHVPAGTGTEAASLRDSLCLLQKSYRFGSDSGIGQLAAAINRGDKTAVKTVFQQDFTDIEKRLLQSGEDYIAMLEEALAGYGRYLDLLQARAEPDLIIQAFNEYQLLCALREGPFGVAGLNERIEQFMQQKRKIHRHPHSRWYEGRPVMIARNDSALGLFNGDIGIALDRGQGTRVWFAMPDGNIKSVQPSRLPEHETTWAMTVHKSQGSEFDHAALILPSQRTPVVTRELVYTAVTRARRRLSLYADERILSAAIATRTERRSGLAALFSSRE", "sequence (P07648 whole entry)": "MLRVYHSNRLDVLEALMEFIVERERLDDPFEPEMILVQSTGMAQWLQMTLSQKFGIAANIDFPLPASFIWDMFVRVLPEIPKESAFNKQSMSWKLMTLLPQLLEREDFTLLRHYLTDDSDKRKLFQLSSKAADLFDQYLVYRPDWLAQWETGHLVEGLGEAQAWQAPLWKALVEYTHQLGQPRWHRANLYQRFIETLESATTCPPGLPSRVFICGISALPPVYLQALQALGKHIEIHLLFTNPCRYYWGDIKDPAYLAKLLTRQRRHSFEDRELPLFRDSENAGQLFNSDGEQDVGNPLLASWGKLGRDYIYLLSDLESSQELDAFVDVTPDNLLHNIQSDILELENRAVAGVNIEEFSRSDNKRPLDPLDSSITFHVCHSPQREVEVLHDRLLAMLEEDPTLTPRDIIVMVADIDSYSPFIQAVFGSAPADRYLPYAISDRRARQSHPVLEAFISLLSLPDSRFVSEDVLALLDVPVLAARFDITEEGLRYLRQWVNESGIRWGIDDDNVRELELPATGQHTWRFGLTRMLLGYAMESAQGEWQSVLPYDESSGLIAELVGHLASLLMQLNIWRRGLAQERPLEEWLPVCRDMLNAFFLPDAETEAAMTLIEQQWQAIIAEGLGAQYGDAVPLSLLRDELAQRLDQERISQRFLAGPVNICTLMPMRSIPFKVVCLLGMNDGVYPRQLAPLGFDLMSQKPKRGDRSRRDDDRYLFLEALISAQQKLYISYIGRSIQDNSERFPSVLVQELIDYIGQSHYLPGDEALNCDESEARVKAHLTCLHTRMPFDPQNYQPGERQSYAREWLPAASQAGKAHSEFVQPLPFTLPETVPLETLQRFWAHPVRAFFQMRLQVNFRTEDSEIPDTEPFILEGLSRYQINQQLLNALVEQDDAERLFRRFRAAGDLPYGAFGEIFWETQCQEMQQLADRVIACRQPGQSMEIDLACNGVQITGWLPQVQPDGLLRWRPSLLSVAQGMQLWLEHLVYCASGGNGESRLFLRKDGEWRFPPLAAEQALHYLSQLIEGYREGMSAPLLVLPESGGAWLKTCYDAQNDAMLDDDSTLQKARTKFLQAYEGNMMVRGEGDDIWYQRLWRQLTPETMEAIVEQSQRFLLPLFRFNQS", "sequence (P08394 whole entry)": "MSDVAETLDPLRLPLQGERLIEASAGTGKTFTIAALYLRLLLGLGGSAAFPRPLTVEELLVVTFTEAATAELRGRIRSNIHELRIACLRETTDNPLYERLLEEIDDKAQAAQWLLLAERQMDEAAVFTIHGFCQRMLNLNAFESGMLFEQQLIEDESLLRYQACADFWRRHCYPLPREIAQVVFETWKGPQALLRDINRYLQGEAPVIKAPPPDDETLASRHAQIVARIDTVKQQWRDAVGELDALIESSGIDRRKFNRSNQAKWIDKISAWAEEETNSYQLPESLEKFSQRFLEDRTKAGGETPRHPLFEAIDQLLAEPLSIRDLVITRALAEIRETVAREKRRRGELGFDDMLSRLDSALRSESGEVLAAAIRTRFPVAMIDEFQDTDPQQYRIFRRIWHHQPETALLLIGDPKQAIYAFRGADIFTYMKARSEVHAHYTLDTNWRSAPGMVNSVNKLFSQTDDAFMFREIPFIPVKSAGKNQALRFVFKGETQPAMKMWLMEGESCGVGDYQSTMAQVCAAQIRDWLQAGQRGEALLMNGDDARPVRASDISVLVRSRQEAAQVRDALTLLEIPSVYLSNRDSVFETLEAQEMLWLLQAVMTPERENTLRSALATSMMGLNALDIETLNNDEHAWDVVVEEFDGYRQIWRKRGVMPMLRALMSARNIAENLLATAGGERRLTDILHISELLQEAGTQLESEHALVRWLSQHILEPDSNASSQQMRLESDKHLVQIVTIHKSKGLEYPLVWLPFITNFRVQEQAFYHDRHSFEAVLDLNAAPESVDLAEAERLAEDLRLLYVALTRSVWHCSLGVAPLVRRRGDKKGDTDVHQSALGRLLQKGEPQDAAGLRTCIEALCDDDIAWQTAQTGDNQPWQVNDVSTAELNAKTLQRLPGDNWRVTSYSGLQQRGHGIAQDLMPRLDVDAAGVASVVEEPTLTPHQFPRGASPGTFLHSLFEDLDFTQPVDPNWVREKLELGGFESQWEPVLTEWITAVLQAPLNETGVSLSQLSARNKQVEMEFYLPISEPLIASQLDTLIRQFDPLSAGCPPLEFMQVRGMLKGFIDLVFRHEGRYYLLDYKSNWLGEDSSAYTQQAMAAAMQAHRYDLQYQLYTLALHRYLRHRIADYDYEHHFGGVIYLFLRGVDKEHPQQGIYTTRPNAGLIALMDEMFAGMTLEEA", "experiment": "RecBCD inhibition via phage-restricted bacterial growth – absorbance, V66 E. coli, mutant T4 phage, counter-screen for AddAB inhibitor project, dose response (AID 492957)", "type": "functional, cell-based, Escherichia coli str. K-12 substr. MG1655"}},
  "note": "The source made the active and inactive calls.",
  "data": [
    {"smiles": "CC(=O)c1cc2ccc(O)cc2oc1=O", "values": [
      {"measurement": "EC50", "setting": "[1]", "result": "4.14 µM (active)"},
      {"measurement": "EC50", "setting": "[2]", "result": "1.88 µM (active)"}
    ]},
    {"smiles": "O=C(NC(NC(=S)Nc1ccc(Cl)cc1Cl)C(Cl)(Cl)Cl)OCc1ccccc1", "note": "(centres undefined)", "values": [
      {"measurement": "IC50", "setting": "[3]", "result": "0.879 µM (active)"},
      {"measurement": "EC50", "setting": "Mu-type opioid receptor [4]", "result": "> 32 µM (inactive)"},
      {"measurement": "IC50", "setting": "[5]", "result": "> 32 µM (inactive)"},
      {"measurement": "EC50", "setting": "[6]", "result": "> 32 µM (inactive)"},
      {"measurement": "EC50", "setting": "[7]", "result": "> 32 µM (inactive)"},
      {"measurement": "IC50", "setting": "[8]", "result": "> 100 µM (inactive)"},
      {"measurement": "IC50", "setting": "[9]", "result": "2.09 µM (active)"},
      {"measurement": "IC50", "setting": "Mu-type opioid receptor [10]", "result": "> 32 µM (inactive)"},
      {"measurement": "IC50", "setting": "[11]", "result": "> 100 µM (inactive)"}
    ]},
    {"smiles": "Clc1ccc(CSc2nnc(-c3ccccn3)n2Cc2cccs2)c(Cl)c1", "values": [
      {"measurement": "EC50", "setting": "[12]", "result": "8.11 µM (active)"},
      {"measurement": "EC50", "setting": "[13]", "result": "> 64 µM (inactive)"},
      {"measurement": "EC50", "setting": "Mu-type opioid receptor [14]", "result": "> 32 µM (inactive)"},
      {"measurement": "IC50", "setting": "[15]", "result": "> 32 µM (inactive)"},
      {"measurement": "EC50", "setting": "[16]", "result": "1.38 µM (active)"},
      {"measurement": "IC50", "setting": "Mu-type opioid receptor [17]", "result": "> 32 µM (inactive)"},
      {"measurement": "EC50", "setting": "[18]", "result": "0.694 µM (active)"},
      {"measurement": "IC50", "setting": "[19]", "result": "> 32 µM (inactive)"},
      {"measurement": "EC50", "setting": "Mu-type opioid receptor [20]", "result": "> 32 µM (inactive)"},
      {"measurement": "EC50", "setting": "[21]", "result": "2.27 µM (active)"},
      {"measurement": "EC50", "setting": "[22]", "result": "> 32 µM (inactive)"}
    ]},
    {"smiles": "O=C(N/N=C\\c1cccc(Cl)c1)c1ccc(Cn2cc(Br)c([N+](=O)[O-])n2)o1", "values": [
      {"measurement": "IC50", "setting": "[23]", "result": "> 119 µM (inactive)"},
      {"measurement": "IC50", "setting": "Exodeoxyribonuclease V", "result": "> 119 µM (inactive)"}
    ]}
  ]
}
